32 molecules from US4552684A, “Dichroic dye and liquid crystalline composition for color display” (Mitsui Toatsu Chemicals, Inc., priority 1983, dated 1985) can be followed below.

SMILES strings stand for the structures.

Type in all cases: physicochemical
A short description of data set [1]: solubility of dye in liquid crystals E-8. To be noted: for Solubility: in liquid crystals E-8 at 25° C. On the procedure: This is the solubility (% by weight) of each dye in liquid crystals E-8 (made by Merck & Co.) at 25° C.
Data set [2] can be described thus: dichroic ratio of dye dissolved in liquid crystals (homogeneously aligned 10 micron cell). To be noted: for Dichroic ratio in liquid crystals E-8: Table 1 method: 1.0% by weight dye, 10 micron gap. On the procedure:
The dichroic ratio is determined as follows:
The cell was placed in the light path of a spectro-photometer. Straight polarized light parallel to the alignment of the liquid crystals was applied to the cell, and the absorbance ([…] ) was measured. Furthermore, straight polarized light at right angles to the alignment of the liquid crystals was applied, and the absorbance ([…] ) was measured. The dichroic ratio was calculated from the following equation. [formula]

A short description of data set [3]: color of dye in toluene.
The nature of data set [4]: light fastness (total current after exposure of cell to solar light for 200 hours). Conditions: for Light fastness: 0.5% by weight dye in E-8, solar light 200 hours, rectangular wave 6Vp-p, 32 Hz, total current. On the procedure: 0.5% by weight of each dye was dissolved in the liquid crystals E-8, and the solution was sealed into a liquid crystal wall having a gap of 10 microns and including a pair of facing transparent electrodes with an area of 1.0 cm^2. The cell was exposed to solar light for 200 hours. Then, a voltage of a rectangular wave form (6Vp-p, 32 Hz) was applied, and the total current was measured (μA/cm^2).

Data set [5] is described as follows: dichroic ratio and maximum absorption wavelength in cyanobiphenyl/cyanoterphenyl liquid crystal mixture. On the procedure: 0.1 Part by weight of the dye No. 8 in Table 1 was dissolved in 10 parts by weight of a liquid crystal mixture composed of 43% of 4-n-pentyl-4'-cyano-biphenyl, 17% of 4-n-propoxy-4'-cyanobiphenyl, 13% of 4-n-pentoxy-4'-cyanobiphenyl, 17% of 4-n-octoxy-4'-cyanobiphenyl and 10% of 4-n-pentyl-4'-cyanoterphenyl. The resulting color liquid crystal mixture was sealed into a glass cell having a gap of 10 microns which had been subjected to homogeneous aligning treatment. The maximum absorption wavelength was 512 nm and the dichroic ratio was 10.2. A display device obtained by sealing this color liquid crystal mixture into a glass liquid crystal display element of the same structure as above including transparent electrodes assumed a red color entirely in the absence of a voltage applied, and when a voltage was applied, only the part of the electrodes became nearly colorless, thus showing a good contrast.

A short description of data set [6]: maximum absorption wavelength of dye in liquid crystals. The method, then: The crude dye was purified by the same column chromatographic technique as in Example 1 to give a blue dye having a melting point of 155° to 157° C. (Dye No.19 in Table 1). The dichroic ratio of the dye was measured in the liquid crystals E-8 in the same way as described above with regard to Table 1, and found to be 10.3 (λmax 616 nm). […] When liquid crystals ZLI-1840 were used instead of the liquid crystals E-8, the dichroic ratio of the dye was 10.8 (λmax 612 nm). When liquid crystals ZLI-1275 were used, the dichroic ratio was 10.1 (λmax 616 nm).

In data set [1], `Nc1c2c(c(O)c3oc(C4CCCCC4)nc13)C(=O)c1ccccc1C2=O` [C, reference compound] yielded a Solubility of 0.4 % by weight.

For `CC(CCC1CCC(c2nc3c(O)c4c(c(O)c3o2)C(=O)c2ccccc2C4=O)CC1)CC(C)(C)C` (centres unmarked) [Dye No. 7], the “Dichroic ratio in liquid crystals E-8” value in data set [2] came out at 8.1. Also, the Color in toluene entry in data set [3] is “Orange”.

Take `CCCCCCCC1CCC(c2nc3c(O)c4c(c(N)c3o2)C(=O)c2ccccc2C4=O)CC1` (centres unmarked) [Dye No. 16]: the “Dichroic ratio in liquid crystals E-8” value in data set [2] is on record as 8.0. The Color in toluene entry in data set [3] is given as “Red”.

For `CCCCCC1CCC(c2nc3cc4c(c(O)c3o2)C(=O)c2ccc(CC(C)C)c(O)c2C4=O)CC1` (centres unmarked) [Dye No. 21], the “Dichroic ratio in liquid crystals E-8” value in data set [2] was determined as 8.1. Also, the Color in toluene entry in data set [3] was “Orange”.

Take `CCCCCCCC1CCC(c2nc3c(N)c4c(c(O)c3o2)C(=O)c2ccc(C(=O)OCCCC)cc2C4=O)CC1` (centres unmarked) [Dye No. 24]: the “Dichroic ratio in liquid crystals E-8” value in data set [2] came out at 8.6. Besides, in data set [3], the Color in toluene result is reported as “Reddish violet”.

With `CCCCOC(=O)C1CCC(c2nc3c(N)c4c(c(O)c3o2)C(=O)c2c(O)cccc2C4=O)CC1` (centres unmarked) [Dye No. 23], the “Dichroic ratio in liquid crystals E-8” value in data set [2] stood at 8.2. Further, in data set [3], the Color in toluene result is on record as “Reddish violet”.

`CCCCc1ccc(OC(=O)C2CCC(c3nc4c(Cl)c5c(c(O)c4o3)C(=O)c3c(Cl)ccc(O)c3C5=O)CC2)cc1` (centres unmarked) [Dye No. 26]: the “Dichroic ratio in liquid crystals E-8” value in data set [2] stood at 8.0. In data set [3], the Color in toluene entry was “Orange”.

As for `CCCCCC1CCC(c2nc3cc4c(c(NC)c3o2)C(=O)c2ccccc2C4=O)CC1` (centres unmarked) [Dye No. 17], the “Dichroic ratio in liquid crystals E-8” value in data set [2] came out at 6.9. For the same molecule, in data set [3], the Color in toluene entry is on record as “Orange”.

Turning to `CCCCCC1CCC(c2nc3cc4c(c(O)c3o2)C(=O)c2c(O)ccc(O)c2C4=O)CC1` (centres unmarked) [Dye No. 18], the “Dichroic ratio in liquid crystals E-8” value in data set [2] is 9.8. For the same molecule, the Color in toluene result in data set [3] is reported as “Orange”.

With `CCCCOCCC1CCC(c2nc3c(Br)c4c(c(O)c3o2)C(=O)c2ccccc2C4=O)CC1` (centres unmarked) [Dye No. 6], the “Dichroic ratio in liquid crystals E-8” value in data set [2] is 6.8. The Color in toluene result in data set [3] is given as “Orange”.

As to `CCCCc1ccc(OC(=O)C2CCC(c3nc4c(N)c5c(c(O)c4o3)C(=O)c3c(N)ccc(O)c3C5=O)CC2)cc1` (centres unmarked) [Dye No. 27], the “Dichroic ratio in liquid crystals E-8” value in data set [2] is on record as 9.2. In addition, the Color in toluene result in data set [3] is listed as “Blue”.

Turning to `CCCCCCCCCC1CCC(c2nc3c(N)c4c(c(O)c3o2)C(=O)c2c(N)cccc2C4=O)CC1` (centres unmarked) [Dye No. 2], the “Dichroic ratio in liquid crystals E-8” value in data set [2] is given as 8.2. For the same molecule, the Color in toluene entry in data set [3] is on record as “Violet”.

`CCCCCC1CCC(c2nc3c(N)c4c(c(N)c3o2)C(=O)c2ccccc2C4=O)CC1` (centres unmarked) [Dye No. 10]: the “Dichroic ratio in liquid crystals E-8” value in data set [2] came to 8.1. The Color in toluene result in data set [3] is given as “Reddish violet”.

As to `CCCCCCCC1CCC(c2nc3c(N)c4c(c(N)c3o2)C(=O)c2ccc(C(=O)OCCCC)cc2C4=O)CC1` (centres unmarked) [Dye No. 25], in data set [2], the “Dichroic ratio in liquid crystals E-8” value worked out at 9.3. In addition, the Color in toluene result in data set [3] is on record as “Reddish violet”.

In the case of `CCCCc1ccc(Nc2cccc3c2C(=O)c2cccc(Nc4ccc(CCCC)cc4)c2C3=O)cc1` [B, reference compound], in data set [1], the Solubility amounted to 0.7 % by weight. The molecule further had a Light fastness in data set [4] of 3.6 μA/cm^2.

As to `CC(C)(C)C1CCC(c2nc3cc4c(c(O)c3s2)C(=O)c2ccccc2C4=O)CC1` (centres unmarked) [Dye No. 13], the “Dichroic ratio in liquid crystals E-8” value in data set [2] turned out to be 7.8. The Color in toluene result in data set [3] is listed as “Yellow”.

For `CC(CC[C@H]1CC[C@H](c2nc3c(N)c4c(c(O)c3o2)C(=O)c2c(N)ccc(O)c2C4=O)CC1)CC(C)(C)C` (some centres unmarked) [Dye No. 19], in data set [2], the “Dichroic ratio in liquid crystals E-8” value turned out to be 10.3. Moreover, the Color in toluene entry in data set [3] was “Blue”.

On to `CCCCCCCC1CCC(c2nc3cc4c(c(O)c3o2)C(=O)c2c(NC)ccc(NC)c2C4=O)CC1` (centres unmarked) [Dye No. 20], for which the “Dichroic ratio in liquid crystals E-8” value in data set [2] was 9.2. In addition, the Color in toluene result in data set [3] is given as “Blue”.

Regarding `CCCCCC1CCC(c2nc3c(N)c4c(c(O)c3o2)C(=O)c2ccccc2C4=O)CC1` (centres unmarked) [Dye No. 8], the “Dichroic ratio in liquid crystals E-8” value in data set [2] turned out to be 9.5. Moreover, in data set [3], the Color in toluene result was “Red”.

With `CC(C)(C)CC(C)(C)[C@H]1CC[C@H](c2nc3c(N)c4c(c(O)c3o2)C(=O)c2c(O)cccc2C4=O)CC1` [Dye No. 22], the “Dichroic ratio in liquid crystals E-8” value in data set [2] stood at 11.6. Further, the Color in toluene entry in data set [3] is given as “Reddish violet”.

Consider `CCCCCCCCC1CCC(c2nc3c(N)c4c(c(O)c3o2)C(=O)c2c(N)ccc(O)c2C4=O)CC1` (centres unmarked) [Dye No. 14], for which the “Dichroic ratio in liquid crystals E-8” value in data set [2] amounted to 10.5. For the same molecule, the Color in toluene result in data set [3] is on record as “Blue”.

Consider `CCCCC1CCC(c2nc3c(N)c4c(c(O)c3o2)C(=O)c2ccccc2C4=O)CC1` (centres unmarked) [Dye No. 1], for which the “Dichroic ratio in liquid crystals E-8” value in data set [2] is listed as 9.5. For the same molecule, the Color in toluene result in data set [3] is recorded as “Red”.

With `CCCCCC1CCC(c2nc3c(N)c4c(c(O)c3o2)C(=O)c2ccccc2C4=O)CC1` (centres unmarked) [No. 8], the Solubility in data set [1] amounted to 4.7 % by weight. Besides, in data set [1] (liquid crystals E-8), the “solubility compared with known dyes A, B and C” value is given as “higher solubility”. For the same molecule, the Light fastness in data set [4] is listed as 2.0 μA/cm^2. In data set [4] (as in Table 2), the “light fastness compared with known dyes” value is “higher solubility and light fastness than known dyes A, B and C”. In addition, the dichroic ratio in data set [5] (0.1 part dye in 10 parts cyanobiphenyl/cyanoterphenyl mixture (Example 4)) was 10.2. Also, the maximum absorption wavelength in data set [5] (cyanobiphenyl/cyanoterphenyl mixture (Example 4)) stood at 512 nm.

For `CC(C)(C)CC(C)(C)[C@H]1CC[C@H](c2nc3c(N)c4c(c(O)c3o2)C(=O)c2c(O)cccc2C4=O)CC1` [No. 22], the “solubility in liquid crystals E-8” value in data set [1] (liquid crystals E-8, temperature not stated (Example 7)) is 4.0%. The dichroic ratio in data set [2] (liquid crystals ZLI-1840) turned out to be 12.3.

Consider `CC(CC[C@H]1CC[C@H](c2nc3c(N)c4c(c(O)c3o2)C(=O)c2c(N)ccc(O)c2C4=O)CC1)CC(C)(C)C` (some centres unmarked) [No.19], for which the “solubility in E-8” value in data set [1] (liquid crystals E-8, temperature not stated (Example 5)) worked out at 7.2 % by weight. Moreover, the λmax is given as 616 nm in data set [6] (liquid crystals E-8), 616 nm in data set [6] (liquid crystals ZLI-1275) and 612 nm in data set [6] (liquid crystals ZLI-1840). Moreover, the dichroic ratio worked out at 10.1 in data set [2] (liquid crystals ZLI-1275) and 10.8 in data set [2] (liquid crystals ZLI-1840).

For the molecule `CCCCCOC(=O)C1CCC(c2nc3cc4c(c(O)c3o2)C(=O)c2c(O)ccc(O)c2C4=O)CC1` (centres unmarked) [Dye No. 3], the “Dichroic ratio in liquid crystals E-8” value in data set [2] amounted to 9.3. Also, the Color in toluene result in data set [3] is listed as “Orange”.

Consider `CC(C)(C)c1ccc(C2CCC(c3nc4c(N)c5c(c(O)c4o3)C(=O)c3ccccc3C5=O)CC2)cc1` (centres unmarked) [Dye No. 5], for which, in data set [2], the “Dichroic ratio in liquid crystals E-8” value is 10.1. In data set [3], the Color in toluene entry is listed as “Red”.

In the case of `CCCCC[C@H]1CC[C@H](c2nc3cc4c(c(O)c3o2)C(=O)c2ccccc2C4=O)CC1` [Dye No. 4], the “Dichroic ratio in liquid crystals E-8” value in data set [2] stood at 7.2. In data set [3], the Color in toluene result is “Yellow”.

As for `CCCCCC1CCC(c2nc3cc4c(c(O)c3s2)C(=O)c2ccccc2C4=O)CC1` (centres unmarked) [Dye No. 11], the “Dichroic ratio in liquid crystals E-8” value in data set [2] is given as 8.5. Further, the Color in toluene entry in data set [3] is “Yellow”.

Regarding `CCCCCCCCCCCCC1CCC(c2nc3c(N)c4c(c(O)c3o2)C(=O)c2ccccc2C4=O)CC1` (centres unmarked) [Dye No. 9], the “Dichroic ratio in liquid crystals E-8” value in data set [2] was found to be 9.3. The Color in toluene entry in data set [3] is on record as “Red”.

In data set [1], `CN(C)c1ccc(N=Nc2ccc(N=Nc3ccccc3)cc2)cc1` [A, reference compound] displayed a Solubility of 1.1 % by weight. The same molecule had a Light fastness in data set [4] of 4.2 μA/cm^2.

For `CCCCCCCCCC1CCC(c2nc3c(N)c4c(c(O)c3o2)C(=O)c2cc(C)ccc2C4=O)CC1` (centres unmarked) [Dye No. 15], in data set [2], the “Dichroic ratio in liquid crystals E-8” value was determined as 10.2. For the same molecule, the Color in toluene result in data set [3] is on record as “Red”.
